# Measurements reported in patent publication US20090018111A1, “Novel Antimicrobial Medicament” (priority 2004, published 2009).
# Like-named read-outs stand apart in the source and are kept apart here.
# Experiments:
# Assay in all cases: Sensitivity test (agar dilution), clinical isolate
# [1] = tested on: Acinetobacter spp. 1398-2; format: cell-based, Acinetobacter calcoaceticus and Acinetobacter lwoffi
# Method: (§1) In addition, the antibacterial activities were tested against strains which are comparatively less sensitive to β-lactam compounds, namely clinically isolated 13 strains of Acinetobacter calcoaceticus and Acinetobacter lwoffi, clinically isolated 11 strains of Serratia marcescens, clinically isolated 12 strains of Burkholderia cepacia, and clinically isolated 15 strains of Pseudomonas aeruginosa.
# (§2) According to the standard method of Japan Chemotherapeutic Society (Chemotherapy, vol. […], p 76-79 (1981)) the test was carried out using the agar dilution method. After dissolving test samples in distilled water, agar medium containing the test samples was prepared in such a manner that the final concentration became twice serial dilution by pouring serially diluted combination drug solution or a single drug solution into agar medium. As agar medium was used Mueller Hinton Agar medium (MHA). Then, each strain was cultivated over night at 37° C. in an incubator and suspended in buffered saline solution with gelatin (BSG) in the concentration of about 10^6 CFU/ml. The suspension (about 5 μl) containing test strains was inoculated to the medium containing the test samples by Micro Planter.
# (§3) Each drug was weighed, and dissolved in distilled water to give a test sample. When the drugs are used in combination, two kinds of solution containing each drug were mixed so as to be various ratio of concentration to give a mixed solution. When the sample is subjected to sensitivity test, this mixed solution was diluted by twice serial dilution method.
# (§4) Furthermore, when the drug is solely used, each test sample was used as it is, and diluted by twice serial dilution method from the maximum concentration to the minimum concentration.
# [2] = tested on: Acinetobacter spp. 256; format: cell-based, Acinetobacter calcoaceticus and Acinetobacter lwoffi
# Method: as §1, §2, §3, §4
# [3] = tested on: Acinetobacter spp. Jan-99; format: cell-based, Acinetobacter calcoaceticus and Acinetobacter lwoffi; conditions: Acinetobacter, read-out: MIC
# Method: as §1, §2, §3, §4
# [4] = tested on: S. marcescens 14424; format: cell-based, Serratia marcescens
# Method: as §1, §2, §3, §4
# [5] = tested on: S. marcescens 14425; format: cell-based, Serratia marcescens
# Method: as §1, §2, §3, §4
# [6] = tested on: S. marcescens 14689; format: cell-based, Serratia marcescens
# Method: as §1, §2, §3, §4
# [7] = tested on: S. marcescens 14981; format: cell-based, Serratia marcescens
# Method: as §1, §2, §3, §4
# [8] = tested on: S. marcescens 14991; format: cell-based, Serratia marcescens
# Method: as §1, §2, §3, §4
# [9] = tested on: S. marcescens 1928513; format: cell-based, Serratia marcescens
# Method: as §1, §2, §3, §4
# [10] = tested on: S. marcescens 1944950; format: cell-based, Serratia marcescens
# Method: as §1, §2, §3, §4
# [11] = tested on: S. marcescens 2012884; format: cell-based, Serratia marcescens
# Method: as §1, §2, §3, §4
# [12] = tested on: S. marcescens 2054522; format: cell-based, Serratia marcescens
# Method: as §1, §2, §3, §4
# [13] = tested on: S. marcescens 7138; format: cell-based, Serratia marcescens
# Method: as §1, §2, §3, §4
# [14] = tested on: S. marcescens 7155; format: cell-based, Serratia marcescens
# Method: as §1, §2, §3, §4
# [15] = tested on: P. aeruginosa 15019; format: cell-based, Pseudomonas aeruginosa
# Method: as §1, §2, §3, §4
smiles,measurement,setting,value
"C[C@H]1C=C(c2csc(SC3=C(C(=O)O)N4C(=O)[C@H]([C@@H](C)O)[C@H]4[C@H]3C)n2)CN1 [SM, (4R,5S,6S)-6-[(1R)-1-Hydroxyethyl]-4-methyl-3-({4-[(5S)-5-methyl-2,5-dihydro-1H-pyrrol-3-yl]-1,3-thiazol-2-yl}sulfanyl)-7-oxo-1-azabicyclo[3.2.0]hept-2-ene-2-carboxylic acid]",MIC,"[1]; SPP.13982, Concomitant (ME:SM = 1:1)",2 µg/mL
same,MIC,"[1]; SPP.13982, Concomitant (ME:SM = 1:2)",4 µg/mL
same,MIC,"[1]; SPP.13982, Concomitant (ME:SM = 1:4)",4 µg/mL
same,MIC,"[1]; SPP.13982, Concomitant (ME:SM = 2:1)",2 µg/mL
same,MIC,"[1]; SPP.13982, alone",8 µg/mL
same,MIC,"[2]; SPP.256, Concomitant (ME:SM = 1:1)",0.5 µg/mL
same,MIC,"[2]; SPP.256, Concomitant (ME:SM = 1:2)",1 µg/mL
same,MIC,"[2]; SPP.256, Concomitant (ME:SM = 1:4)",1 µg/mL
same,MIC,"[2]; SPP.256, Concomitant (ME:SM = 2:1)",0.25 µg/mL
same,MIC,"[2]; SPP.256, alone",1 µg/mL
same,MIC,[3]; Concomitant (ME:SM = 1:1),0.25 µg/mL
same,MIC,[3]; Concomitant (ME:SM = 1:2),0.25 µg/mL
same,MIC,[3]; Concomitant (ME:SM = 1:4),0.5 µg/mL
same,MIC,[3]; Concomitant (ME:SM = 2:1),0.125 µg/mL
same,MIC,[3]; alone,0.5 µg/mL
same,MIC,"[4]; Serratia marcescens, 14424, Concomitant (ME:SM = 1:1)",8 µg/mL
same,MIC,"[4]; Serratia marcescens, 14424, Concomitant (ME:SM = 1:2)",4 µg/mL
same,MIC,"[4]; Serratia marcescens, 14424, Concomitant (ME:SM = 1:4)",8 µg/mL
same,MIC,"[4]; Serratia marcescens, 14424, Concomitant (ME:SM = 2:1)",2 µg/mL
same,MIC,"[4]; Serratia marcescens, 14424, alone",16 µg/mL
same,MIC,"[5]; Serratia marcescens, 14425, Concomitant (ME:SM = 1:1)",0.031 µg/mL
same,MIC,"[5]; Serratia marcescens, 14425, Concomitant (ME:SM = 1:2)",0.063 µg/mL
same,MIC,"[5]; Serratia marcescens, 14425, Concomitant (ME:SM = 1:4)",0.125 µg/mL
same,MIC,"[5]; Serratia marcescens, 14425, Concomitant (ME:SM = 2:1)",0.016 µg/mL
same,MIC,"[5]; Serratia marcescens, 14425, alone",2 µg/mL
same,MIC,"[6]; Serratia marcescens, 14689, Concomitant (ME:SM = 1:1)",2 µg/mL
same,MIC,"[6]; Serratia marcescens, 14689, Concomitant (ME:SM = 1:2)",4 µg/mL
same,MIC,"[6]; Serratia marcescens, 14689, Concomitant (ME:SM = 1:4)",8 µg/mL
same,MIC,"[6]; Serratia marcescens, 14689, Concomitant (ME:SM = 2:1)",2 µg/mL
same,MIC,"[6]; Serratia marcescens, 14689, alone",32 µg/mL
same,MIC,"[7]; Serratia marcescens, 14981, Concomitant (ME:SM = 1:1)",1 µg/mL
same,MIC,"[7]; Serratia marcescens, 14981, Concomitant (ME:SM = 1:2)",1 µg/mL
same,MIC,"[7]; Serratia marcescens, 14981, Concomitant (ME:SM = 1:4)",2 µg/mL
same,MIC,"[7]; Serratia marcescens, 14981, Concomitant (ME:SM = 2:1)",0.5 µg/mL
same,MIC,"[7]; Serratia marcescens, 14981, alone",8 µg/mL
same,MIC,"[8]; Serratia marcescens, 14991, Concomitant (ME:SM = 1:1)",2 µg/mL
same,MIC,"[8]; Serratia marcescens, 14991, Concomitant (ME:SM = 1:2)",2 µg/mL
same,MIC,"[8]; Serratia marcescens, 14991, Concomitant (ME:SM = 1:4)",4 µg/mL
same,MIC,"[8]; Serratia marcescens, 14991, Concomitant (ME:SM = 2:1)",0.5 µg/mL
same,MIC,"[8]; Serratia marcescens, 14991, alone",32 µg/mL
same,MIC,"[9]; Serratia marcescens, 1928513, Concomitant (ME:SM = 1:1)",1 µg/mL
same,MIC,"[9]; Serratia marcescens, 1928513, Concomitant (ME:SM = 1:2)",1 µg/mL
same,MIC,"[9]; Serratia marcescens, 1928513, Concomitant (ME:SM = 1:4)",2 µg/mL
same,MIC,"[9]; Serratia marcescens, 1928513, Concomitant (ME:SM = 2:1)",0.5 µg/mL
same,MIC,"[9]; Serratia marcescens, 1928513, alone",8 µg/mL
same,MIC,"[10]; Serratia marcescens, 1944950, Concomitant (ME:SM = 1:1)",8 µg/mL
same,MIC,"[10]; Serratia marcescens, 1944950, Concomitant (ME:SM = 1:2)",8 µg/mL
same,MIC,"[10]; Serratia marcescens, 1944950, Concomitant (ME:SM = 1:4)",16 µg/mL
same,MIC,"[10]; Serratia marcescens, 1944950, Concomitant (ME:SM = 2:1)",4 µg/mL
same,MIC,"[10]; Serratia marcescens, 1944950, alone",32 µg/mL
same,MIC,"[11]; Serratia marcescens, 2012884, Concomitant (ME:SM = 1:1)",2 µg/mL
same,MIC,"[11]; Serratia marcescens, 2012884, Concomitant (ME:SM = 1:2)",4 µg/mL
same,MIC,"[11]; Serratia marcescens, 2012884, Concomitant (ME:SM = 1:4)",4 µg/mL
same,MIC,"[11]; Serratia marcescens, 2012884, Concomitant (ME:SM = 2:1)",2 µg/mL
same,MIC,"[11]; Serratia marcescens, 2012884, alone",8 µg/mL
same,MIC,"[12]; Serratia marcescens, 2054522, Concomitant (ME:SM = 1:1)",1 µg/mL
same,MIC,"[12]; Serratia marcescens, 2054522, Concomitant (ME:SM = 1:2)",1 µg/mL
same,MIC,"[12]; Serratia marcescens, 2054522, Concomitant (ME:SM = 1:4)",2 µg/mL
same,MIC,"[12]; Serratia marcescens, 2054522, Concomitant (ME:SM = 2:1)",0.5 µg/mL
same,MIC,"[12]; Serratia marcescens, 2054522, alone",8 µg/mL
same,MIC,"[13]; Serratia marcescens, 7138, Concomitant (ME:SM = 1:1)",2 µg/mL
same,MIC,"[13]; Serratia marcescens, 7138, Concomitant (ME:SM = 1:2)",2 µg/mL
same,MIC,"[13]; Serratia marcescens, 7138, Concomitant (ME:SM = 1:4)",2 µg/mL
same,MIC,"[13]; Serratia marcescens, 7138, Concomitant (ME:SM = 2:1)",1 µg/mL
same,MIC,"[13]; Serratia marcescens, 7138, alone",8 µg/mL
same,MIC,"[14]; Serratia marcescens, 7155, Concomitant (ME:SM = 1:1)",2 µg/mL
same,MIC,"[14]; Serratia marcescens, 7155, Concomitant (ME:SM = 1:2)",2 µg/mL
same,MIC,"[14]; Serratia marcescens, 7155, Concomitant (ME:SM = 1:4)",2 µg/mL
same,MIC,"[14]; Serratia marcescens, 7155, Concomitant (ME:SM = 2:1)",1 µg/mL
same,MIC,"[14]; Serratia marcescens, 7155, alone",8 µg/mL
same,MIC,"[15]; Pseudomonas aeruginosa, 15019, Concomitant (ME:SM = 1:1)",4 µg/mL
same,MIC,"[15]; Pseudomonas aeruginosa, 15019, Concomitant (ME:SM = 1:2)",8 µg/mL
same,MIC,"[15]; Pseudomonas aeruginosa, 15019, Concomitant (ME:SM = 1:4)",8 µg/mL
same,MIC,"[15]; Pseudomonas aeruginosa, 15019, Concomitant (ME:SM = 2:1)",2 µg/mL
same,MIC,"[15]; Pseudomonas aeruginosa, 15019, alone",16 µg/mL
